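Compound exposure: 48 hours, 5 concentrations, 96-well plates. Abbreviation: GI50, concentration required for 50% inhibition of growth. TGI denotes the concentration required for complete inhibition of growth.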
Tests used:
Test in all cases: DTP human tumour cell line panel, 48 h
[1] = system: DMS 114 small cell lung
[2] = system: HOP-62 NSCLC
[3] = system: KM12 colon
[4] = system: M19-MEL melanoma
[5] = system: MALME-3M melanoma
[6] = system: NCI-H460 lung
[7] = system: OVCAR-8 ovarian
[8] = system: RXF 393 renal
[9] = system: SN12C renal
[10] = system: SR leukemia

| Compound | TGI [1] | TGI [2] | TGI [3] | TGI [4] | TGI [5] | TGI [6] | TGI [7] | TGI [8] | TGI [9] | TGI [10] | GI50 [2] | GI50 [3] | GI50 [5] | GI50 [6] | GI50 [7] | GI50 [8] | GI50 [9] | GI50 [10] |
| --- | --- | --- | --- | --- | --- | --- | --- | --- | --- | --- | --- | --- | --- | --- | --- | --- | --- | --- |
| NC(=S)N/N=C(/CC(=O)c1ccccc1)C(=O)Nc1ccc(Cl)c(Cl)c1 | > 100 µM | > 100 µM | > 100 µM | > 100 µM | > 100 µM | > 100 µM | > 100 µM | > 100 µM | > 100 µM | – | – | – | – | – | – | – | – | – |
| COc1nc(NC2OCC(OC(C)=O)C(OC(C)=O)C2OC(C)=O)c(N=CC=Nc2c(NC3OCC(OC(C)=O)C(OC(C)=O)C3OC(C)=O)nc(OC)n(C)c2=O)c(=O)n1C (centres undefined) | – | > 100 µM | > 100 µM | > 100 µM | > 100 µM | > 100 µM | > 100 µM | > 100 µM | > 100 µM | > 100 µM | – | – | – | – | – | – | – | – |
| CC1=NOC(=O)/C1=C/c1ccccc1O | > 100 µM | > 100 µM | > 100 µM | > 100 µM | > 100 µM | > 100 µM | > 100 µM | – | > 100 µM | > 100 µM | – | – | – | – | – | – | – | – |
| C=CCC1([C@H](C)[C@@H](OC(C)=O)c2cc(OC)c(OC)c(OC)c2)C[C@@H](OC)CCC1=O (some centres undefined) | 44.4 µM | 85.3 µM | 37 µM | 91.3 µM | 43.1 µM | 62.4 µM | 54.2 µM | 26.6 µM | 37 µM | 91.7 µM | – | – | – | – | – | – | – | – |
| O=C(c1ccc(F)cc1)c1cccc(C(=O)c2ccc(F)cc2)n1 | 96.4 µM | 48.6 µM | > 100 µM | > 100 µM | > 100 µM | > 100 µM | > 100 µM | 33.4 µM | > 56.2 µM | > 100 µM | – | – | – | – | – | – | – | – |
| CC1CCCCc2nc3c(c(=O)n21)CCCC3 (centres undefined) | – | > 100 µM | > 100 µM | > 100 µM | > 100 µM | > 100 µM | > 100 µM | – | > 100 µM | – | – | – | – | – | – | – | – | – |
| CC1=NCCc2c1[nH]c1cc(O)ccc21 | > 100 µM | > 100 µM | > 100 µM | > 100 µM | > 100 µM | > 100 µM | > 100 µM | > 100 µM | > 100 µM | – | – | – | – | – | – | – | – | – |
| Cc1ccc(-c2c(N)[n+]([O-])c3ccccc3[n+]2[O-])cc1 | – | 31 µM | 26.7 µM | 24.8 µM | 10.8 µM | 47 µM | > 100 µM | – | 27.8 µM | – | – | – | – | – | – | – | – | – |
| COc1ccccc1NC(=O)CC(=O)N1N=C(C)C(N=Nc2ccc(S(N)(=O)=O)cc2)C1=O (centres undefined) | > 100 µM | > 100 µM | > 100 µM | > 100 µM | > 100 µM | > 100 µM | > 100 µM | > 100 µM | > 100 µM | > 100 µM | – | – | – | – | – | – | – | – |
| N#C/C(=C1\OC(=O)C(c2ccc(Br)cc2)=C1O)c1ccc(Br)cc1 | 25.9 µM | 33.3 µM | 28.5 µM | 31.1 µM | 31 µM | 30.4 µM | 24.6 µM | 26.7 µM | 23.6 µM | 55.6 µM | – | – | – | – | – | – | – | – |
| COC(=O)CCC(NC(=S)N/N=C(\C)c1nccs1)C(=O)OC (centres undefined) | 57.5 µM | > 100 µM | > 100 µM | > 100 µM | > 100 µM | > 100 µM | > 100 µM | > 100 µM | > 100 µM | – | – | – | – | – | – | – | – | – |
| CC(=O)NC(CCCNCc1ccccc1)C(=O)NCc1ccccc1 (centres undefined) | > 100 µM | > 100 µM | > 100 µM | > 100 µM | > 100 µM | > 100 µM | > 100 µM | > 100 µM | > 100 µM | – | – | – | – | – | – | – | – | – |
| CNC(=O)OCc1nc(SC2CCCCO2)n(C)c1COC(=O)NC (centres undefined) | > 100 µM | > 100 µM | > 100 µM | > 100 µM | > 100 µM | > 100 µM | > 100 µM | > 100 µM | > 100 µM | > 100 µM | – | – | – | – | – | – | – | – |
| COc1ccc2c(c1)C(O)(C(F)(F)F)c1cc(C(=O)C(F)(F)F)c3ccccc3c1N2 (centres undefined) | 22.1 µM | – | 15.6 µM | 28.2 µM | – | 22.3 µM | – | 23.8 µM | – | – | – | – | – | – | – | – | – | – |
| COC(=O)c1csnn1 | > 100 µM | > 100 µM | > 100 µM | > 100 µM | > 100 µM | > 100 µM | > 100 µM | – | > 100 µM | > 100 µM | – | – | – | – | – | – | – | – |
| C=CCc1c2c(c(OC)c3ccoc13)C(=O)/C(=C/c1ccccc1OC)O2 | – | 46.3 µM | 22.3 µM | – | > 100 µM | > 100 µM | > 100 µM | 6.92 µM | > 100 µM | > 100 µM | 4.98 µM | 3.49 µM | 19.8 µM | 3.46 µM | 3.87 µM | 2.47 µM | 4.85 µM | 3.16 µM |
| CCN(CC)c1ccc(C(=C2C=CC(=[N+](CC)Cc3cccc(S(=O)(=O)O)c3)C=C2)c2ccc(N(CC)Cc3cccc(S(=O)(=O)O)c3)cc2)cc1 | – | > 96.6 µM | 28.9 µM | – | 53.1 µM | 39.1 µM | > 100 µM | 76.1 µM | > 100 µM | 0.643 µM | 4.59 µM | 4.36 µM | 5.52 µM | 3.93 µM | 4.8 µM | 7.94 µM | 3.24 µM | – |
| Cc1ccc2c(ccc3c[n+]4c5ccccc5ccc4n32)c1 | – | 12.6 µM | 2.09 µM | – | 1.59 µM | 5.41 µM | 9.72 µM | 8.81 µM | 2.5 µM | 16.7 µM | 1.28 µM | 0.34 µM | 0.316 µM | 1.2 µM | 0.688 µM | 2.52 µM | 0.297 µM | 1.47 µM |
| CCN(CC)S(=O)(=O)c1ccc(OC)c(Nc2ncc(-c3ccccc3)o2)c1 | – | > 25 µM | > 25 µM | – | > 25 µM | > 25 µM | > 25 µM | > 25 µM | > 25 µM | > 25 µM | > 20.1 µM | 0.845 µM | > 25 µM | > 23.1 µM | > 25 µM | > 10.6 µM | > 22.7 µM | > 14.1 µM |
| COc1ccc(C(=O)/C=C/c2ccc(/C=C/c3cc(OC)c(OC)c(OC)c3)cc2)cc1 | – | 63.8 µM | 83.9 µM | – | > 100 µM | > 100 µM | 61.1 µM | 43.6 µM | > 100 µM | > 100 µM | 12.8 µM | 3.75 µM | 13.2 µM | 8.65 µM | 3.76 µM | 8.01 µM | 9.61 µM | 1.98 µM |
| CCCCOc1ccc(NC(N)=Nc2ccc(Cl)cc2)cc1 | – | 2.86 µM | 26.1 µM | – | 8.34 µM | 8.91 µM | 25 µM | 25.5 µM | 15.9 µM | 47.6 µM | – | – | – | – | – | – | – | – |
